Measurements from patent US10905777B2, “Systems and methods for nucleic acid expression in vivo” (DNARx, priority 2015, dated 2021).

Assays:
[1] = tested on: luciferase; experiment: Mouse lung luciferase activity after IV DNA vector delivery; assay type: in vivo; details: mice, day 7
Procedure: Lung was homogenized with 500 ul of 1× Lysis buffer (Promega, Wis.). The homogenate was centrifuged at 3000×g at 4C for 10 min. and the supernatant collected. Luciferase activity was assayed using 20 μl of supernatant and 100 μl of Luciferase reagent for 10 seconds using a GloMax® Luminometer (Promega, Wis.).
In each case, cationic liposome injection was followed two minutes later by IV injection of 40 μg of an mCMV-EF1-luciferase, CPG-free, single cassette, DNA vector. […]

[2] = tested on: luciferase; experiment: Mouse spleen luciferase levels after IV PEI:EF-1 Luc DNA complexes with drug pre-injection; assay type: in vivo; details: mice; day 1; IP drug two hours prior to IV PEI:DNA (12.5 μg); amlexanox 200 μg, chloroquine 1 mg, SAHA 200 μg, tofacitinib 300 μg per mouse
[3] = tested on: Rituximab; experiment: Serum Rituximab ELISA in mice after sequential injection of Rituximab DNA vector; assay type: in vivo; details: 24 hours, IP pre-treatment (VPA 15 or 2 mg/kg, Theo 30 or 15 mg/kg), 1050 nmoles DexP liposomes, 75 ug DNA, Dex
Procedure: Mice were bled and serum isolated as for G-CSF. Rituximab levels were measured using an Immunoguide ELISA obtained from Eagle Biosciences, and performed according to instructions. […] .
. […] Numbered plasmids (in FIG. 30) were codon-optimized versions of the original, CpG-free but not codon optimized Rituximab DNA sequence.
. […] Thus, significant Rituximab serum levels can be produced by either dual- or single-cassette, 2A peptide-containing DNA vectors.
. Mock-injected mice received LR only without lipid or DNA. Serum levels of Rituximab protein and ALT were assayed 24 hrs later.

[4] = tested on: human factor IX; experiment: Human Factor IX ELISA in mice; details: 24 hrs, IP pre-treatment (VPA 2 mg/kg, Theo 30 mg/kg), 1500 nmoles DexP DOTAP SUV, 60 ug factor IX vector, Dex
Procedure: In this Example, three mice were injected per group. […] This was followed two minutes later by a single IV injection of 60 ug of a codon optimized, EF-1-driven single cassette DNA vector encoding the human factor IX cDNA (see constructs in FIGS. 38 and 44). […] Where indicated, animals were also pretreated by IP injection of 2 mg/kg Valproic Acid (VPA) or 30 mg/kg Theophylline (Theo). […] Each mouse was bled as for G-CSF. Blood was collected into tubes containing Potassium EDTA or Sodium Citrate to prevent coagulation and centrifuged to obtain plasma. An AssayPro ELISA specific to human Factor IX was used according to manufacturer's instructions to measure Factor IX expression.

[5] = tested on: human G-CSF; experiment: Serum human G-CSF ELISA in mice after sequential IV cationic liposome then CPG-free DNA vector injection; assay type: in vivo; details: IP 2 hours before and 2 hours after 900 nmol DOTAP SUV then 70 ug DNA, dexamethasone 40 mg/kg, Tofacitinib 15 mg/kg
Procedure: Three to five mice were injected per group.
Each mouse was anesthetized and then bled via the submandibular vein. Serum was then isolated from whole blood and human G-CSF levels measured in pg/ml, as performed strictly according to the manufacturer's specifications, using an R and D systems human G-CSF ELISA.
Five mice were injected per group. […] Serum hG-CSF levels were assessed beginning at day seven after IV injection, and at seven-day intervals thereafter.
Sera were collected from groups of four mice at either day 6 or 14 following sequential, IV injection of 800 nmoles of pure DOTAP MLV cationic liposomes, followed two minutes later by IV injection of 40 μg either an EF1-luciferase—EF1-hGCSF (2 expression cassette) or an EF1-hGCSF (1 expression cassette), CPG-free, single plasmid DNA vector.
Sera were collected from groups of four mice at day 1 following sequential, IV injection of buffer alone (control), 1000 nmoles of pure DOTAP SUV cationic liposomes, alone or co-injected with 1000 nmol of neutral MLV, followed two minutes later by IV injection of 120 μg an EF1-luciferase—EF1-hGCSF (2 expression cassette), CPG-free, single plasmid DNA vector or 1400 nmoles of pure DOTAP SUV cationic liposomes, alone or co-injected with 1000 nmol of neutral MLV, followed two minutes later by IV injection of 100 μg of EF1-luciferase—EF1-hGCSF DNA. […]

[6] = tested on: CD20-expressing human Raji B cells; experiment: FACS binding to Raji cells; assay type: cell-based; details: anti-human IgG-PE, serum six weeks after injection
Procedure: In this Example, Raji cells (1 million/sample) were incubated with mouse serum samples or recombinant Rituximab (50 ng/ml) for 1 hr at 4C, in FACS binding buffer containing EDTA and 0.5% BSA. Following washes, samples were incubated with fluorescently labeled secondary antibody (anti-human IgG-PE) for 30 min, washed and analyzed using an Accuri flow cytometer. Between 3500-5000 events were recorded for each sample. The experiment was repeated twice with similar results.

[7] = in vivo; cited from earlier work
[8] = drug with 800 nmoles DOTAP MLV (L-arginine 2 mg/kg, colchicine 0.01 mg/kg, dexamethasone 1 mg/kg) then 40 μg single cassette mCMV-EF1-luciferase
[9] = drug with 800 nmoles DOTAP MLV then 40 μg dual cassette EF1-luciferase—EF1-hGCSF

## N=C(N)NCCC[C@H](N)C(=O)O [L-arginine]
[1]; [8]
  luciferase activity in the lung vs DOTAP MLV alone (control): failed to increase gene expression levels
[1]; [9]
  luciferase activity in the lung vs DOTAP MLV alone (control): either lower than or comparable to controls

## O=C(CCCCCCC(=O)Nc1ccccc1)NO [SAHA, suberanilohydroxamic acid]
[2]
  spleen gene expression (luciferase) levels: increased gene expression levels

## Cn1c(=O)c2[nH]cnc2n(C)c1=O [Theophylline]
[3]
  serum Rituximab levels: significantly increased
[4]
  serum human factor IX levels: significantly higher

## CC(C)c1ccc2oc3nc(N)c(C(=O)O)cc3c(=O)c2c1 [amlexanox]
[2]
  spleen gene expression (luciferase) levels: increased gene expression levels

## CCN(CC)CCCC(C)Nc1ccnc2cc(Cl)ccc12 (centres unmarked) [chloroquine]
[2]
  spleen gene expression (luciferase) levels: increased gene expression levels

## COc1cc2c(c(OC)c1OC)-c1ccc(OC)c(=O)cc1[C@@H](NC(C)=O)CC2 [colchicine]
[1]; [8]
  luciferase activity in the lung vs DOTAP MLV alone (control): higher luciferase activity

## CCCc1nn(C)c2c(=O)[nH]c(-c3cc(S(=O)(=O)N4CCN(C)CC4)ccc3OCC)nc12 [sildenafil]
[1]; [9]
  luciferase activity in the lung vs DOTAP MLV alone (control): higher luciferase activity

## C[C@@H]1CCN(C(=O)CC#N)C[C@@H]1N(C)c1ncnc2[nH]ccc12 [tofacitinib]
[5]
  HuG-CSF protein levels: did neither

## CCCC(CCC)C(=O)O [valproic acid]
[3]
  serum Rituximab levels: significantly increased
[4]
  serum human factor IX levels: significantly higher

## Recombinant Rituximab: recombinant Rituximab (anti-CD20) protein used as reference
[6]
  Mean Fluorescence Intensity: 5781.87

B1: Neupogen: recombinant human G-CSF protein (protein, UniProt P09919 31-207, looked up)
Granulocyte …: TPLGPASSLPQSFLLKCLEQVRKIQGDGAALQEKLVSECATYKLCHPEELVLLGHSLGIPWAPLSSCPSQALQLAGCLSQLHSGLFLYQGLLQALEGISPELGPTLDTLQLDVADFATTIWQQMEELGMAPALQPTQGAMPAFASAFQRRAGGVLVASHLQSFLEVSYRVLRHLAQP
modifications: filgrastim
[7]
  time for serum hG-CSF levels to return to baseline: approximately 14 hours
